Reference: US7998987B2, “Inhibitors of c-Met and uses thereof” (Vertex Pharmaceuticals Incorporated, priority 2005, dated 2011)
Where two headings read alike, the source gives them in different places.

Biological target: c-Met (Homo sapiens, UniProt P08581)
Test: Ki determination for the inhibition of c-Met kinase activity (standard coupled enzyme system)
Format: biochemical
Details: coupled enzyme system, 200 μM ATP, 80 nM c-Met, 30° C., read-out: c-Met Ki
Procedure, shortened: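 Continuous coupled-enzyme (PK/LDH, NADH depletion) assay with 80 nM c-Met, 200 μM ATP and 10 μM polyGluTyr in 100 mM HEPES pH 7.5, 10 mM MgCl2, 1.5% DMSO at 30 °C.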

c-Met, sequence (P08581 25-1390): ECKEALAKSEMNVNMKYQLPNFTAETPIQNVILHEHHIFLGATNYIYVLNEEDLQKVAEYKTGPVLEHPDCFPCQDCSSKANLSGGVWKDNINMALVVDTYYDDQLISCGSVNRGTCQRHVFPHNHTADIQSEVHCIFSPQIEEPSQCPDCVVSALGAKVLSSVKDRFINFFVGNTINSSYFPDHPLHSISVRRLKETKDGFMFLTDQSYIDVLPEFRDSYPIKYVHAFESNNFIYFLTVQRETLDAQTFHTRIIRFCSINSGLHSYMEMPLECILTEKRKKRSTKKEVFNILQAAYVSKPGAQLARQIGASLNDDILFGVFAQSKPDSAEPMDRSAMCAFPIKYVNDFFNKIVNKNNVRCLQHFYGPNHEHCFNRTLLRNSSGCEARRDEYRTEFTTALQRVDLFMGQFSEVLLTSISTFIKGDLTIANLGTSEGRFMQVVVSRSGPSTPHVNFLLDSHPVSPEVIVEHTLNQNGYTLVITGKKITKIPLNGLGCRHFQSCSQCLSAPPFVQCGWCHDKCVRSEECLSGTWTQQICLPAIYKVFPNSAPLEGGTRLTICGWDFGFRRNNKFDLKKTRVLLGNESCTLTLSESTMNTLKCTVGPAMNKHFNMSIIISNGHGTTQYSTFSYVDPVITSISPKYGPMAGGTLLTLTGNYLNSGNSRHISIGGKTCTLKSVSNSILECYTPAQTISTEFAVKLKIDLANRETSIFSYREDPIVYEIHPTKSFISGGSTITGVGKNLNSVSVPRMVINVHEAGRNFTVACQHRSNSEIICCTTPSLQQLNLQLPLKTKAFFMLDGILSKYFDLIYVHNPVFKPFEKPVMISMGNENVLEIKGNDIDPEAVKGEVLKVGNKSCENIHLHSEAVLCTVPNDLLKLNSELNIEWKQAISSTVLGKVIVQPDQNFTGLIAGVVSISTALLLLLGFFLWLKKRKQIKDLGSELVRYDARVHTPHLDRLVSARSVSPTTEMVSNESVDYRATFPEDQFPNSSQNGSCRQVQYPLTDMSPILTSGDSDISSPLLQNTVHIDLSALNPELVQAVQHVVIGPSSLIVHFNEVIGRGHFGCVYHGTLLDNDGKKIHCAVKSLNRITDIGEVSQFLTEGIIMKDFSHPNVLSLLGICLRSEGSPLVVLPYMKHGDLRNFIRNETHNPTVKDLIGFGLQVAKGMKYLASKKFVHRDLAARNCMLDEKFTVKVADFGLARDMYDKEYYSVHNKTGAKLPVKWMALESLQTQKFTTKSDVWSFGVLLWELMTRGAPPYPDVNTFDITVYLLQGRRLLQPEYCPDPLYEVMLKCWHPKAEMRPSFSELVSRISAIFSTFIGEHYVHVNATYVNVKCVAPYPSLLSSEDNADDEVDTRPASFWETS

Ki | Ki (10 μM polyGluTyr) | SMILES
< 100 nM |  | C[C@@H](c1ccc(O)cc1)c1nnc2ccc(Nc3cccc(Cl)c3)nn12 [Compound 320]
 | > 2000 nM | c1coc(-c2nn3c(Cc4ccc5c(c4)OCO5)nnc3s2)c1 [Compound 48]
